Source: EP2753300B1, “COMBINATION OF CARRAGEENAN AND C-GLYCOSIDE AND USES THEREOF” (L'Oréal, priority 2011, dated 2013)

Tested on: épidermes reconstruits d'Episkin
Experiment: Maturation of the cornified envelope: count of mature envelopes (involucrin immunolabelling / Nile Red) after 7 days of treatment of reconstructed epidermis
Assay type: cell-based
Conditions: 168 h; C-glycoside 2,5% (p/v) alone; 30µl at J7, J9, J10, J13; read-out J14; read-out: augmentation du taux d'enveloppes cornées matures par rapport au témoin eau (Moy)
Excerpt: Les épidermes reconstruits d'Episkin ont été utilisés pour évaluer l'impact de molécules sur la maturation de l'enveloppe cornée.
Les Episkin J7 ont été cultivés avec le carraghénane et les associations carraghénane + C-BETA-D-XYLOPYRANOSIDE-2-HYDROXY-PROPANE (HYDROXYPROPYL TETRAHYDROPYRANTRIOL) pendant 7 jours. Après isolement du stratum, les enveloppes cornées sont extraites.
Trois types d'enveloppes cornées, matures, intermédiaires et immatures sont identifiés et comptées par un logiciel d'analyse d'image développé spécifiquement. […]
Les lames immunomarquées sont visionnées sous microscope (DM6000B Leica) suivant 2 modes d'observation : contraste de phase et fluorescence.
Le contraste de phase fournit une image en niveau de gris nous permettant de visualiser l'ensemble des cellules présentes dans le champ. Le mode fluorescence (jeu de filtercube) est utilisé pour visualiser les fluorochromes fixées à l'échantillon : • Le Nile Red est une sonde fluorescente permettant de localiser les zones hydrophobes plus particulièrement les lipides. […]

CC(O)C[C@@H]1OC[C@@H](O)[C@H](O)[C@H]1O (stereo partly drawn) [C-glycoside, C-β-D-xylopyranoside-2-hydroxy-propane]
activation at 25000 µg/mL: 22%
